According to ChEMBL document CHEMBL4270595, “Design, synthesis, antiproliferative activity, molecular docking and cell cycle analysis of some novel (morpholinosulfonyl) isatins with potential EGFR inhibitory activity” (Eur J Med Chem, 2018):
Each block holds one compound with its values, some of them ahead of it. Active and inactive are the calls of the source. No cut-off for these calls is given here.

Assays:
HepG2 [1] = assay: Cytotoxicity against human HepG2 cells after 24 hrs by SRB assay; type: functional, cell-based; details: HepG2, 24 h
HCT-116 = assay: Cytotoxicity against human HCT116 cells after 24 hrs by SRB assay; type: functional, cell-based; details: HCT-116, 24 h
[2] = Cytotoxicity against human Caco cells after 24 hrs by SRB assay; type: functional, cell-based
MCF7 = assay: Cytotoxicity against human MCF7 cells after 24 hrs by SRB assay; type: functional, cell-based; details: MCF7, 24 h
WI-38 = assay: Cytotoxicity against human WI38 cells after 24 hrs by SRB assay; type: cell-based; details: WI-38, 24 h
[3] = target: T1, Epidermal growth factor receptor (Homo sapiens, UniProt P00533); assay: Inhibition of EGFR in human HepG2 cells; type: cell-based
T1 sequence (P00533 whole entry): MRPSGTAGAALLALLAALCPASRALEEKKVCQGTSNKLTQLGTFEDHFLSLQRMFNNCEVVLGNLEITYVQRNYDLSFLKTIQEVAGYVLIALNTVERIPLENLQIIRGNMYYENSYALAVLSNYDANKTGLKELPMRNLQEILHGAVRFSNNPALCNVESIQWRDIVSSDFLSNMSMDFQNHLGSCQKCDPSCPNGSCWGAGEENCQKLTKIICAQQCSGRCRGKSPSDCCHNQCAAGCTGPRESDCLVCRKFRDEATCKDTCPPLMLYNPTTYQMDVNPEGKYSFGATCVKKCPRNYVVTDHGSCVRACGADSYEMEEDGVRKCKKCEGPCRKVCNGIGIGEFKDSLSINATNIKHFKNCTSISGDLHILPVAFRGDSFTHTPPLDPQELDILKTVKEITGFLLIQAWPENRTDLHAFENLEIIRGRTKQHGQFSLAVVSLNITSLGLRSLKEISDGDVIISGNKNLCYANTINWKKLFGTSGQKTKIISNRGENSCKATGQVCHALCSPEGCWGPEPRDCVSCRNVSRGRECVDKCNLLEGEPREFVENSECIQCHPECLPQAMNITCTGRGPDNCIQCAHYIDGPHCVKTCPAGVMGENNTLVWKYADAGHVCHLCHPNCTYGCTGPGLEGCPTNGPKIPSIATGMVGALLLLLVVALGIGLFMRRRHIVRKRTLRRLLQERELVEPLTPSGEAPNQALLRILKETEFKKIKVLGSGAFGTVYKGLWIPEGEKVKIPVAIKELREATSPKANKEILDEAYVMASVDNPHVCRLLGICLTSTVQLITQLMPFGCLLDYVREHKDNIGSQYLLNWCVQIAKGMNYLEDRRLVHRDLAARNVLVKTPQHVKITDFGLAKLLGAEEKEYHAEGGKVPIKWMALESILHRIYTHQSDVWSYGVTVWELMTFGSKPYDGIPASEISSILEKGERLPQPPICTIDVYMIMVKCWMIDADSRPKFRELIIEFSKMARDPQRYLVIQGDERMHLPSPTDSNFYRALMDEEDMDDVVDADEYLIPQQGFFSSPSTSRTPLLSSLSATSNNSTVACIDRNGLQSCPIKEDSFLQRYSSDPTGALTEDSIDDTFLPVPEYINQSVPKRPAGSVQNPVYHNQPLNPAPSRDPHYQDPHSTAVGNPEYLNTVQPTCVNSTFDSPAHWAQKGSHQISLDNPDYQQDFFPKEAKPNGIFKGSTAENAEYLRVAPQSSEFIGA

[4] = Inhibition of recombinant human FGFR preincubated for 5 mins followed by ATP addition and measured after 30 mind by HTRF assay
[5] = target: Epidermal growth factor receptor (Homo sapiens, UniProt P00533, L858R); assay: Inhibition of recombinant human EGFR L858R mutant expressed in baculovirus infected insect cells preincubated for 5 mins followed by ATP addition and measured after 30 mins by HTRF assay; type: cell-based
Epidermal growth factor receptor (Homo sapiens, UniProt P00533, L858R), sequence (P00533 25-1210 L858R limits assumed): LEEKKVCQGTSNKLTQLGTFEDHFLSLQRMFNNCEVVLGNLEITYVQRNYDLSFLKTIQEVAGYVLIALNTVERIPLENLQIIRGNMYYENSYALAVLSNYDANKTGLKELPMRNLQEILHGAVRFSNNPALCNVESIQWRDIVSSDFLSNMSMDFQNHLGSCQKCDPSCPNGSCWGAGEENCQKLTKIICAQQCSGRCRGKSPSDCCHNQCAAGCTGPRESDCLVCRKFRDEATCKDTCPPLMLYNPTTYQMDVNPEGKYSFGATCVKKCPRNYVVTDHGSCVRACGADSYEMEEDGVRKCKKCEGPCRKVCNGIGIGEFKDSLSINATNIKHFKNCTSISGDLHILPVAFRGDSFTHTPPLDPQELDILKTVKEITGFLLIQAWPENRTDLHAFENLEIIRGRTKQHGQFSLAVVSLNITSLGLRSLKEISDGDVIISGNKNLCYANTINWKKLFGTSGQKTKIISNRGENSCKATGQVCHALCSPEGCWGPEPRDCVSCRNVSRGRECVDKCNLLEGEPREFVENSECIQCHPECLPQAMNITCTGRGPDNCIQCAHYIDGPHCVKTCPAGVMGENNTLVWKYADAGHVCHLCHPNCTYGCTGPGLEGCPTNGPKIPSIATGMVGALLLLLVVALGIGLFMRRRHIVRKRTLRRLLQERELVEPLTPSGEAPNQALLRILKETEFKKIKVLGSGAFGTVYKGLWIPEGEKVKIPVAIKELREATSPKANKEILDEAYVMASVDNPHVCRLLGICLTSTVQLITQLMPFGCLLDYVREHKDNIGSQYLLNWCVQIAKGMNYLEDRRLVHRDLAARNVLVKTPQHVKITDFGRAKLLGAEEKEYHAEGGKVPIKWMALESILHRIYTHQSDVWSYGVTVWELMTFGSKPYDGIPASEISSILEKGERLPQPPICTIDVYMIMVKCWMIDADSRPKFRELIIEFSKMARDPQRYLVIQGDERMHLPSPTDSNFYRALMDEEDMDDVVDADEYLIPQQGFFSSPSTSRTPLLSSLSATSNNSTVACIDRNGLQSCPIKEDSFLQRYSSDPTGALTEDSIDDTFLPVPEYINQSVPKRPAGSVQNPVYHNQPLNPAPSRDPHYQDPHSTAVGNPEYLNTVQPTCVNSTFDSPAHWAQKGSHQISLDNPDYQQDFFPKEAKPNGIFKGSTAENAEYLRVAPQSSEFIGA

[6] = target: Epidermal growth factor receptor (Homo sapiens, UniProt P00533, T790M); assay: biochemical; type: cell-based, Sf21
Epidermal growth factor receptor (Homo sapiens, UniProt P00533, T790M), sequence (P00533 25-1210 T790M limits assumed): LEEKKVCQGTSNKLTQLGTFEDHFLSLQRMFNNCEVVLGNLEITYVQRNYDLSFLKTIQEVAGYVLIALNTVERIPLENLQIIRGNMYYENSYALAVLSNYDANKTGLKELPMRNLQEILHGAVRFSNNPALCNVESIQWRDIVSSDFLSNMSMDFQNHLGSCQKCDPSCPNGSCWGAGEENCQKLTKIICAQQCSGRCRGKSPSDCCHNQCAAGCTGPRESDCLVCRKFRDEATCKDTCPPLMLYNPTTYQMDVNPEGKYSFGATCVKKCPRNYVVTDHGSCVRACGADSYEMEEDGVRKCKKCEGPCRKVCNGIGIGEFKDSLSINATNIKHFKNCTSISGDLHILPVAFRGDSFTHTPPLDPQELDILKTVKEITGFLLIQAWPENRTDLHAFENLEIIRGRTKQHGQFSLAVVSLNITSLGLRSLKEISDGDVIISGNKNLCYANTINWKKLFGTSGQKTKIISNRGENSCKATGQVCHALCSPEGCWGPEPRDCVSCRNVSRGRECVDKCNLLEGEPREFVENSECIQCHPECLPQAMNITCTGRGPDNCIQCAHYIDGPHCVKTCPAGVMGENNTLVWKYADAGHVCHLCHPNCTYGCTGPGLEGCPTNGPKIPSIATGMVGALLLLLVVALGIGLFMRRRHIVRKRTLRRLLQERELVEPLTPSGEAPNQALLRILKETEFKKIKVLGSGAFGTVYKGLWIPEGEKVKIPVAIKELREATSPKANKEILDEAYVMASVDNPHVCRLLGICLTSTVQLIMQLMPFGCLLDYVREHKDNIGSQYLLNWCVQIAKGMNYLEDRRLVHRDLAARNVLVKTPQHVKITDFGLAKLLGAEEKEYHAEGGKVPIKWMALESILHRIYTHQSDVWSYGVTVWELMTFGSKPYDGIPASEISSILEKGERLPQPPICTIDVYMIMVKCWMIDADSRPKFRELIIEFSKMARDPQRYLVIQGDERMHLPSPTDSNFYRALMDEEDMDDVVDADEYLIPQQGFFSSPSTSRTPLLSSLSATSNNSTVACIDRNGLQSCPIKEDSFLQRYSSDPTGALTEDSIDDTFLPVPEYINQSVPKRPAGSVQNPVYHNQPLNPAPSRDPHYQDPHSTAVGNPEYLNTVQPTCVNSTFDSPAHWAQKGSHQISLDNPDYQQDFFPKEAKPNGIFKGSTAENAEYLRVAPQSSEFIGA

[7] = target: Vascular endothelial growth factor receptor (Homo sapiens, UniProt P17948+P35916+P35968); type: cell-based; details: sf9
Description: Inhibition of GST-tagged recombinant human VEGFR (789-end) expressed in baculovirus infected Sf9 insect cells preincubated for 5 mins followed by ATP addition and measured after 30 mins by HTRF assay

[8] = target: Receptor tyrosine-protein kinase erbB-2 (Homo sapiens, UniProt P04626); assay: Inhibition of recombinant human GST-tagged HER2 (676-end) expressed in baculovirus infected Sf9 insect cells preincubated for 5 mins followed by ATP addition and measured after 30 mins by HTRF assay
Receptor tyrosine-protein kinase erbB-2, sequence (P04626 whole entry): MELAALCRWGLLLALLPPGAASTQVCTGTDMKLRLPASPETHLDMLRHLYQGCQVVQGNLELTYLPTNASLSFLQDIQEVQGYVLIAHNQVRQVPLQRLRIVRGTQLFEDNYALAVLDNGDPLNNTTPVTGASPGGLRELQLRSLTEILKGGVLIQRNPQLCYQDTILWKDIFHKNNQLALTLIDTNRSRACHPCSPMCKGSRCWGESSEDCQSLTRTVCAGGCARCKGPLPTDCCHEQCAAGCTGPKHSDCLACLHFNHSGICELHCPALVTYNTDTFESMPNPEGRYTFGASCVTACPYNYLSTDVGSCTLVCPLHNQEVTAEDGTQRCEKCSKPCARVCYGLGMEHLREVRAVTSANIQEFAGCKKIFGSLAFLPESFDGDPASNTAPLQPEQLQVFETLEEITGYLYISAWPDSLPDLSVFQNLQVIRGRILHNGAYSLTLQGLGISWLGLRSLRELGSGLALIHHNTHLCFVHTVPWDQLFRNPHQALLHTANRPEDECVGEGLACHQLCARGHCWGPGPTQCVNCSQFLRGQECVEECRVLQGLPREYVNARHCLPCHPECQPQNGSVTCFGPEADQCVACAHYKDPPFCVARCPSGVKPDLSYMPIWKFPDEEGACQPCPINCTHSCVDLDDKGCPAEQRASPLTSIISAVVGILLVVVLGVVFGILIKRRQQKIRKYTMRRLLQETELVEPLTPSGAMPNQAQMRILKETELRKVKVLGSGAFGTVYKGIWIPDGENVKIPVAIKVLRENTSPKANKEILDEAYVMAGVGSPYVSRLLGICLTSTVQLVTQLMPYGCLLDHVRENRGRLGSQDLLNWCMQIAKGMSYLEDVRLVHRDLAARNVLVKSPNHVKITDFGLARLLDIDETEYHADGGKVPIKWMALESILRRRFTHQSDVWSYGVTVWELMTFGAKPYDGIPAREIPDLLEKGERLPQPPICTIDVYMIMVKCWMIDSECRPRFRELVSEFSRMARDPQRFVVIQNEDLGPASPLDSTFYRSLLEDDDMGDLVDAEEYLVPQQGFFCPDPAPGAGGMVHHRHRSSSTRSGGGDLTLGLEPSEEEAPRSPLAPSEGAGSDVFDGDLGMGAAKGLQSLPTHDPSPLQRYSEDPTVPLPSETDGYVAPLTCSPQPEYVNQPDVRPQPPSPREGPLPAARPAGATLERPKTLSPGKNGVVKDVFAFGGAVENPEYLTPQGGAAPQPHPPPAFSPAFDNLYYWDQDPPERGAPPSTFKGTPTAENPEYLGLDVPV

[9] = target: T1, Epidermal growth factor receptor; assay: Inhibition of EGFR in human HepG2 cells assessed as suppression of EGFR phosphorylation after 8 hrs by Western blot analysis; type: cell-based
[10] = target: T1, Epidermal growth factor receptor; assay: Inhibition of EGFR in human HepG2 cells assessed as suppression of ERK phosphorylation up to 2 uM after 8 hrs by Western blot analysis; type: cell-based
HepG2 [11] = assay: Cell cycle arrest in human HepG2 cells assessed as accumulation of cells at G0/G1 phase at 10 uM after 24 hrs by flow cytometric analysis (reference value: 52.31%); type: functional
HepG2 [12] = assay: Cell cycle arrest in human HepG2 cells assessed as accumulation of cells at S phase at 10 uM after 24 hrs by flow cytometric analysis (reference value: 31.31%); type: functional
HepG2 [13] = assay: Cell cycle arrest in human HepG2 cells assessed as accumulation of cells at G2/M phase at 10 uM after 24 hrs by flow cytometric analysis (reference value: 16.38%); type: functional
HepG2 [14] = assay: Cell cycle arrest in human HepG2 cells assessed as accumulation of cells at pre-G1 phase at 10 uM after 24 hrs by flow cytometric analysis (reference value: 2.04%); type: functional
HepG2 [15] = assay: Induction of apoptosis in human HepG2 cells assessed as viable cells at 10 uM after 24 hrs by Annexin V-FITC/ propidium iodide staining-based flow cytometric analysis (reference value: 96.09%); type: functional; details: HepG2, 24 h, read-out: Activity
HepG2 [16] = assay: Induction of apoptosis in human HepG2 cells assessed as early apoptotic cells at 10 uM after 24 hrs by Annexin V-FITC/ propidium iodide staining-based flow cytometric analysis (reference value: 0.51%); type: functional
HepG2 [17] = assay: Induction of apoptosis in human HepG2 cells assessed as late apoptotic cells at 10 uM after 24 hrs by Annexin V-FITC/ propidium iodide staining-based flow cytometric analysis (reference value: […]); type: functional
HepG2 [18] = assay: Induction of apoptosis in human HepG2 cells assessed as necrotic cells at 10 uM after 24 hrs by Annexin V-FITC/ propidium iodide staining-based flow cytometric analysis (reference value: 1.28%); type: functional

IC50 [3]: 0.751 µM
Compound: O=C1Nc2ccc(S(=O)(=O)N3CCOCC3)cc2/C1=N/c1ccc(O)cc1
IC50 (HepG2 [1]): 10.4 µM | IC50 (HCT-116): 27.3 µM | IC50 [2]: 17.8 µM | IC50 (MCF7): 52.7 µM | IC50 (WI-38): 259 µM

IC50 [4]: 0.03 µM
Compound: C#Cc1cccc(Nc2ncnc3cc(OCCOC)c(OCCOC)cc23)c1 [ERLOTINIB]

Compound: O=C1Nc2ccc(S(=O)(=O)N3CCOCC3)cc2C1=O
IC50 (HepG2 [1]): 28.6 µM | IC50 (HCT-116): 60 µM | IC50 [2]: 45.6 µM | IC50 (MCF7): 67.9 µM | IC50 (WI-38): 588 µM

Compound: O=C1Nc2ccc(S(=O)(=O)N3CCOCC3)cc2/C1=N/NC(=O)c1ccccc1
IC50 (HepG2 [1]): 18.1 µM | IC50 (HCT-116): 28.9 µM | IC50 [2]: 36.2 µM | IC50 (MCF7): 414 µM | IC50 (WI-38): 295 µM

Compound: O=C1Nc2ccc(S(=O)(=O)N3CCOCC3)cc2/C1=N/c1ccc(Br)cc1
IC50 (HepG2 [1]): 11.9 µM | IC50 (HCT-116): 15.3 µM | IC50 [2]: 29.4 µM | IC50 (MCF7): 44.8 µM | IC50 (WI-38): 372 µM

Compound: CS(=O)(=O)CCNCc1ccc(-c2ccc3ncnc(Nc4ccc(OCc5cccc(F)c5)c(Cl)c4)c3c2)o1 [LAPATINIB]
IC50 (HepG2 [1]): 11.7 µM | IC50 (HCT-116): 5.92 µM | IC50 [2]: 12.1 µM | IC50 (MCF7): 5.02 µM

Compound: CC(=O)N/N=C1\C(=O)Nc2ccc(S(=O)(=O)N3CCOCC3)cc21
IC50 (HepG2 [1]): 27.5 µM | IC50 (HCT-116): 29 µM | IC50 [2]: 18.4 µM | IC50 (MCF7): 56 µM | IC50 (WI-38): 325 µM

Compound: O=S(=O)(c1ccc2[nH]c3nc4ccccc4nc3c2c1)N1CCOCC1
IC50 (HepG2 [1]): 27.2 µM | IC50 (HCT-116): 19.2 µM | IC50 [2]: 18.9 µM | IC50 (MCF7): 40.8 µM | IC50 (WI-38): 418 µM

Compound: Cc1ccc(S(=O)(=O)N/N=C2\C(=O)Nc3ccc(S(=O)(=O)N4CCOCC4)cc32)cc1
IC50 (HepG2 [1]): 24.7 µM | IC50 (HCT-116): 23.4 µM | IC50 [2]: 14.6 µM | IC50 (MCF7): 38.4 µM | IC50 (WI-38): 261 µM

IC50 [3]: 1.93 µM
Compound: COc1ccc(-c2c(C#N)c(N)n(/N=C3\C(=O)Nc4ccc(S(=O)(=O)N5CCOCC5)cc43)c(=O)c2C#N)cc1
IC50 (HepG2 [1]): 15 µM | IC50 (HCT-116): 18.1 µM | IC50 [2]: 10.3 µM | IC50 (MCF7): 33.4 µM | IC50 (WI-38): 224 µM

Compound: Cc1ccc(/N=C2\C(=O)Nc3ccc(S(=O)(=O)N4CCOCC4)cc32)cc1
IC50 (HepG2 [1]): 12.8 µM | IC50 (HCT-116): 18.9 µM | IC50 [2]: 33 µM | IC50 (MCF7): 55.9 µM | IC50 (WI-38): 309 µM

Compound: O=C1Nc2ccc(S(=O)(=O)N3CCOCC3)cc2/C1=N/c1cccc(C(F)(F)F)c1
IC50 (HepG2 [1]): 14.3 µM | IC50 (HCT-116): 15.9 µM | IC50 [2]: 21.2 µM | IC50 (MCF7): 41.1 µM | IC50 (WI-38): 226 µM

IC50 [3]: 0.205 µM
Compound: N=c1oc2ccccc2cc1C(=O)N/N=C1\C(=O)Nc2ccc(S(=O)(=O)N3CCOCC3)cc21
IC50 (HepG2 [1]): 7.82 µM | IC50 (HCT-116): 6.75 µM | IC50 [2]: 8.21 µM | IC50 (MCF7): 20.8 µM | IC50 (WI-38): 132 µM

Compound: O=C1Nc2ccc(S(=O)(=O)N3CCOCC3)cc2/C1=N/c1ccc(C(=O)O)cc1
IC50 (HepG2 [1]): 23.1 µM | IC50 (HCT-116): 23.6 µM | IC50 [2]: 25.7 µM | IC50 (MCF7): 26.7 µM | IC50 (WI-38): 313 µM

Compound: N#CCC(=O)N/N=C1\C(=O)Nc2ccc(S(=O)(=O)N3CCOCC3)cc21
IC50 (HepG2 [1]): 7.53 µM | IC50 (HCT-116): 10.3 µM | IC50 [2]: 9.66 µM | IC50 (MCF7): 27.7 µM | IC50 (WI-38): 302 µM | IC50 [3]: 0.023 µM | IC50 [5]: 0.0338 µM | IC50 [6]: 0.137 µM | IC50 [7]: 0.276 µM | IC50 [8]: 0.24 µM | IC50 [4]: 0.378 µM | inhibition [9]: Dose-dependent effect | inhibition [10]: Active | Activity (HepG2 [11]): 40.31% | Activity (HepG2 [12]): 15.58% | Activity (HepG2 [13]): 44.11% | Activity (HepG2 [14]): 14.09% | viability at 10 µM (HepG2 [15]): 83.6% | Activity (HepG2 [16]): 3.17% | Activity (HepG2 [17]): 7.51% | Activity (HepG2 [18]): 3.41%

Compound: O=C1Nc2ccc(S(=O)(=O)N3CCOCC3)cc2/C1=N/c1ccc(Cl)cc1
IC50 (HepG2 [1]): 11.8 µM | IC50 (HCT-116): 24.3 µM | IC50 [2]: 23.7 µM | IC50 (MCF7): 44.3 µM | IC50 (WI-38): 468 µM

Compound: COC(=O)c1ccccc1/N=C1\C(=O)Nc2ccc(S(=O)(=O)N3CCOCC3)cc21
IC50 (HepG2 [1]): 14 µM | IC50 (HCT-116): 18.7 µM | IC50 [2]: 23.5 µM | IC50 (MCF7): 31.4 µM | IC50 (WI-38): 228 µM

IC50 [3]: 1.18 µM
Compound: O=C1Nc2ccc(S(=O)(=O)N3CCOCC3)cc2/C1=N/c1ccc(/N=C2\C(=O)Nc3ccc(S(=O)(=O)N4CCOCC4)cc32)cc1
IC50 (HepG2 [1]): 8.84 µM | IC50 (HCT-116): 7.48 µM | IC50 [2]: 9.16 µM | IC50 (MCF7): 10.9 µM | IC50 (WI-38): 203 µM

Compound: CC(=O)c1cccc(/N=C2\C(=O)Nc3ccc(S(=O)(=O)N4CCOCC4)cc32)c1
IC50 (HepG2 [1]): 28.6 µM | IC50 (HCT-116): 29 µM | IC50 [2]: 21.4 µM | IC50 (MCF7): 39.2 µM | IC50 (WI-38): 177 µM

Compound: COc1cccc2c1C(=O)c1c(O)c3c(c(O)c1C2=O)C[C@@](O)(C(=O)CO)C[C@@H]3O[C@H]1C[C@H](N)[C@H](O)[C@H](C)O1 [DOXORUBICIN]
IC50 (HepG2 [1]): 7.46 µM | IC50 (HCT-116): 8.29 µM | IC50 [2]: 5.91 µM

Compound: O=C1Nc2ccc(S(=O)(=O)N3CCOCC3)cc2/C1=N/NS(=O)(=O)c1ccccc1
IC50 (HepG2 [1]): 23.9 µM | IC50 (HCT-116): 13.3 µM | IC50 [2]: 16.4 µM | IC50 (MCF7): 25.3 µM | IC50 (WI-38): 302 µM

IC50 [3]: 0.046 µM
Compound: O=C1Nc2ccc(S(=O)(=O)N3CCOCC3)cc2/C1=N/Nc1ccccc1
IC50 (HepG2 [1]): 15.6 µM | IC50 (HCT-116): 10.5 µM | IC50 [2]: 20 µM | IC50 (MCF7): 30.3 µM | IC50 (WI-38): 262 µM | Activity (HepG2 [11]): 38.92% | Activity (HepG2 [12]): 14.77% | Activity (HepG2 [13]): 48.31% | Activity (HepG2 [14]): 16.46% | viability at 10 µM (HepG2 [15]): 81.4% | Activity (HepG2 [16]): 4.28% | Activity (HepG2 [17]): 9.49% | Activity (HepG2 [18]): 2.69%

Compound: N/N=C1\C(=O)Nc2ccc(S(=O)(=O)N3CCOCC3)cc21
IC50 (HepG2 [1]): 32.4 µM | IC50 (HCT-116): 36.3 µM | IC50 [2]: 49.6 µM | IC50 (MCF7): 46.8 µM | IC50 (WI-38): 391 µM

IC50 [3]: 0.108 µM
Compound: COc1ccc(C2=C(C#N)C3=NC4=Nc5ccc(S(=O)(=O)N6CCOCC6)cc5C4=NC3C(O)=C2C#N)cc1 (stereo not drawn)
IC50 (HepG2 [1]): 7.3 µM | IC50 (HCT-116): 9.73 µM | IC50 [2]: 7.24 µM | IC50 (MCF7): 11.9 µM | IC50 (WI-38): 324 µM
